Measured values: patent publication US9622977B2, “Sustained release drug delivery system” (BIOPLUS LIFE SCIENCES PVT, LTD., priority 2008, dated 2017)
Like-named read-outs stand apart in the source and are kept apart here. One block for each compound: values may come before it.

Legend:
[1] = rat; for % Dose recovered: 6-CF, oral
[2] = In vitro drug release study of microspheres (USP paddle); assay type: physicochemical; details: HCl buffer pH 1.2, first hr
Protocol: 900 ml of HCl buffer (pH 1.2) was used as dissolution medium for first hr and phosphate buffered saline (PBS, pH 6.8) was used for next 11 hrs. The dried microspheres were filled in hard gelatin capsules and were placed in dissolution vessels. 5 ml sample was withdrawn at various time intervals and volume of the media was replenished with an equal amount of dissolution media. The samples were then analyzed spectroflurometrically.

Erythrocytes = test: Hemolytic toxicity assay; assay type: cell-based; details: 1 hr of incubation at 37°C, water = 100%
Protocol: The procedure from literature was followed to perform the hemolytic toxicity studies.^19 Blood from healthy donors was collected and anticogulated with 3% sodium citrate. Erythrocytes were separated from blood plasma by centrifugation (3000×g, 5 min) and suspended in phosphate buffer saline (PBS) of pH 7.4. […] 0.5 ml 2% w/v dispersion of microspheres formulations in PBS (pH 7.4) was added to 4.5 ml of normal saline and interacted with 1 ml RBC suspension. […] After 1 hr, mixture was centrifuged and supernatants were taken and diluted with an equal volume of normal saline and absorbance was taken at 540 nm against supernatant of normal saline diluted similarly as blank. The percentage hemolysis was thus determined for each sample by taking absorbance of water as 100% hemolytic sample.

[3] = Acyclovir IR 400 mg single dose; From Ref. 35; cited from earlier work
[4] = oral; cited from earlier work
in vivo = details: Sprague-Dawley, rat, po
Protocol: Rats were kept on fasting 12 hours before drug administration and until 24 hours post dosing. Water ad libitum was given throughout the study. […] Second, third, fourth, fifth and sixth group received oral administration of chitosan, thiolated chitosan, trimethyl chitosan, CARBOPOL® or METHOCEL® microspheres, respectively. […] Supernatant was collected and acetonitrile was added to precipitate the proteins. The precipitated proteins were settled by centrifugation at 2000 rpm for 15 min. The supernatant was collected and filtered through a 0.45 μm filter into volumetric flask and drug concentration was determined by spectrofluorometric assay.

% Dose recovered ([1]; 1. Stomach, 2 hr): 52.2%
% Dose recovered ([1]; 1. Stomach, 6 hr): 0%
% Dose recovered ([1]; 1. Stomach, 8 hr): 0%
% Dose recovered ([1]; 1. Stomach, 10 hr): 0%
% Dose recovered ([1]; 2. Duodenum, 2 hr): 10.9%
% Dose recovered ([1]; 2. Duodenum, 4 hr): 19.5%
% Dose recovered ([1]; 2. Duodenum, 6 hr): 0%
% Dose recovered ([1]; 2. Duodenum, 8 hr): 0%
% Dose recovered ([1]; 2. Duodenum, 10 hr): 0%
% Dose recovered ([1]; 3. Jejunum, 2 hr): 0%
% Dose recovered ([1]; 3. Jejunum, 4 hr): 10.6%
% Dose recovered ([1]; 3. Jejunum, 6 hr): 0%
% Dose recovered ([1]; 3. Jejunum, 8 hr): 0%
% Dose recovered ([1]; 3. Jejunum, 10 hr): 0%
% Dose recovered ([1]; 4. Jejunum, 2 hr): 0%
% Dose recovered ([1]; 4. Jejunum, 4 hr): 5.8%
% Dose recovered ([1]; 4. Jejunum, 6 hr): 6.9%
% Dose recovered ([1]; 4. Jejunum, 8 hr): 0%
% Dose recovered ([1]; 4. Jejunum, 10 hr): 0%
% Dose recovered ([1]; 5. Jejunum, 2 hr): 0%
% Dose recovered ([1]; 5. Jejunum, 4 hr): 0%
% Dose recovered ([1]; 5. Jejunum, 6 hr): 3.9%
% Dose recovered ([1]; 5. Jejunum, 8 hr): 0%
% Dose recovered ([1]; 5. Jejunum, 10 hr): 0%
% Dose recovered ([1]; 6. Ileum, 2 hr): 0%
% Dose recovered ([1]; 6. Ileum, 4 hr): 0%
% Dose recovered ([1]; 6. Ileum, 6 hr): 0%
% Dose recovered ([1]; 6. Ileum, 8 hr): 5.9%
% Dose recovered ([1]; 6. Ileum, 10 hr): 0%
% Dose recovered ([1]; 7. Remaining Intestine, 2 hr): 0%
% Dose recovered ([1]; 7. Remaining Intestine, 4 hr): 0%
% Dose recovered ([1]; 7. Remaining Intestine, 6 hr): 0%
% Dose recovered ([1]; 7. Remaining Intestine, 8 hr): 0%
% Dose recovered ([1]; 7. Remaining Intestine, 10 hr): 0%
% recovered from stomach following oral administration ([1]; time not stated): more than 30%
Structure (SMILES): O=C(O)c1ccc2c(c1)C1(OC2=O)c2ccc(O)cc2Oc2cc(O)ccc21 [6-CF solution, 6-Carboxyfluorescein]

% drug released in first 1 hr [2]: 95.3±4.1%
AUC (in vivo): 282 ± 28 ng·h/mL
Cmax (in vivo; 5 mg/kg): 53.1 ± 6.8 ng/mL
MRT (in vivo; 5 mg/kg): 5.4 ± 0.5 h
bioavailability (in vivo; 5 mg/kg): 100%
Structure (SMILES): Nc1nc2c(ncn2COCCO)c(=O)[nH]1 [Acyclovir]
% Hemolysis (Erythrocytes): 10.2 ± 1.4%
Area under plasma concentration profile (AUC) [3]: 3307.5 ng·h/mL
Time to maximum plasma concentration (tmax) [3]: 1.4 h
bioavailability [4]: 10-20%

Structure (SMILES): Cn1c(=O)c2[nH]cnc2n(C)c1=O [theophylline]
bioavailability [4]: 100%
